Test [1] has as its target T1, Avi-KRAS G12D (1-169) GppNHp/RAF1 RBD-3×FLAG (52-151) (Homo sapiens, UniProt P01116, G12D).
T1 construct: Avi-KRAS G12D (1-169) GppNHp
The test can be described thus: HTRF Raf1-KRAS G12D-GppNHp disruption assay. It counts as biochemical. The note with it: 1 h incubation. The protocol: (§1) The HTRF assay employed the following protocol:
(§2) Compounds were dispensed in assay plate (384-well, Grenier Bione #784075) using Echo (model 555) with dose response settings: 200 nL final volume, titration from 100 μM as a 10-point dilution series. Protein mix was prepared in assay buffer, and dispensed on plates, 10 μL per well, then incubated for 1 h at room temperature, with 700 rpm shaking. Reagents mix was prepared and dispensed on plates, 10 μL per well, then incubated for 1 h at room temperature, with 700 rpm shaking.
(§3) Plates were analyzed on an Envision plate reader using the following setting: Excitation 320 nm, Bandwidth […]; Emission 615 nm, Bandwidth […], Gain 100%, Flashes 100, Lag 60 μs. Data was reported as percentage of activity, with DMSO as 100%. Data was plotted and analyzed using Prism 8.
A general note: In TR-FRET formats the signal depends on donor and acceptor labels being close together.

Test [2] deals with T2, Avi-KRAS G12D/Q25A (1-169) GppNHp/3×FLAG-PI3KCA (157-299) (Homo sapiens, UniProt P01116, G12D/Q25A).
T2 construct: Avi-KRAS G12D/Q25A (1-169) GppNHp
T2 sequence (P01116 1-169 isoform P01116-2 G12D/Q25A limits assumed): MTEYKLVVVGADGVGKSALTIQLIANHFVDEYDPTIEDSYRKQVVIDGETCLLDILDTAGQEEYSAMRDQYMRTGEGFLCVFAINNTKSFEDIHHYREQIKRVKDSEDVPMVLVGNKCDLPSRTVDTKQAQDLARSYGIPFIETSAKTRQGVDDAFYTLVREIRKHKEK
As to the kind of experiment: HTRF PI3KCA-KRAS G12D/Q25A-GppNHp disruption assay. It counts as biochemical. The note with it: 1 h incubation. As for the experimental part:
as §1, §2, §3

T1 sequence (P01116 1-169 isoform P01116-2 G12D limits assumed): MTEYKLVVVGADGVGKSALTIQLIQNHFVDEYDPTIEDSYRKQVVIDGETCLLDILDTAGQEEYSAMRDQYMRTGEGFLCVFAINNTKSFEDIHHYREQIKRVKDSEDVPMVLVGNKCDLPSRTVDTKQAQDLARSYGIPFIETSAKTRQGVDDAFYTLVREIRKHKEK

As usually defined, the IC50 is the point on the concentration scale where inhibition reaches its midpoint. The low end stands for inhibition by little substance, the high end for a need for much substance. On to `N#Cc1cc2c(N3CCNCC3)ncnc2c(F)c1-c1ccc(F)c2sc(N)nc12` [Compound 94, 7-(2-amino-7-fluorobenzo[d]thiazol-4-yl)-8-fluoro-4-(piperazin-1-yl)quinazoline-6-carbonitrile], for which the IC50 in test [1] and in test [2] was 10 to 30 µM throughout.

Consider `CN1CCC[C@H]1COc1nc(N2C[C@H]3NCC[C@H]32)c2cc(Cl)c(-c3ccc(F)c4sc(N)nc34)c(F)c2n1` [Compound 95], for which the IC50 in test [1] and in test [2] was 10 to 30 µM each time.

`CN1CCC[C@H]1COc1nc(N2CC3(CCN3)C2)c2cc(Cl)c(-c3ccc(F)c4sc(N)nc34)c(F)c2n1` [Compound 96]: the IC50 in test [1] and in test [2] was 10 to 30 µM in each case.

As for `CN1CCC[C@H]1COc1nc(NC2CN(C(=O)CN)C2)c2cc(Cl)c(-c3ccc(F)c4sc(N)nc34)c(F)c2n1` [Compound 97], the IC50 in test [1] lay within 1 to 10 µM; in test [2], 10 to 30 µM.

For `CN1CCC[C@H]1COc1nc(NC2CCNC2)c2cc(Cl)c(-c3ccc(F)c4sc(N)nc34)c(F)c2n1` (stereo partly shown) [Compound 98], the concentration for half-maximal inhibition (IC50) in test [1] and in test [2] was 1 to 10 µM in each case.

For the molecule `CN1CCC[C@H]1COc1nc(NC2CCCNC2)c2cc(Cl)c(-c3ccc(F)c4sc(N)nc34)c(F)c2n1` (stereo partly shown) [Compound 99], the IC50 in test [1] was in the range of 1 to 10 µM; in test [2], 10 to 30 µM.

Consider `CN1CCC[C@H]1COc1nc(NCCN)c2cc(Cl)c(-c3cccc4nc(N)sc34)c(F)c2n1` [Compound 100], for which the concentration for half-maximal inhibition (IC50) in test [1] and in test [2] was 10 to 30 µM each time.

On to `CN1CCC(c2nc(N3CCNCC3)c3cc(Cl)c(-c4ccc(F)c5sc(N)nc45)c(F)c3n2)CC1` [Compound 101], for which the IC50 in test [1] and in test [2] was 10 to 30 µM each time.

For the molecule `CN1CCC(c2nc(NC3CNC3)c3cc(Cl)c(-c4ccc(F)c5sc(N)nc45)c(F)c3n2)CC1` [Compound 102], the IC50 in test [1] and in test [2] was 10 to 30 µM throughout.

Take `CN1CCC(c2nc(NCCN)c3cc(Cl)c(-c4ccc(F)c5sc(N)nc45)c(F)c3n2)CC1` [Compound 103]: the half-inhibitory concentration (IC50) in test [1] and in test [2] was 10 to 30 µM in each case.

For `CN1CCC[C@H]1COc1nc(N2C[C@@H]3[C@H]2CCN3C(=O)CN)c2cc(Cl)c(-c3cccc4nc(N)sc34)c(F)c2n1` [Compound 104], the IC50 in test [1] and in test [2] was 10 to 30 µM in each case.

Regarding `CN1CCC1COc1nc(NC2CNC2)c2cc(Cl)c(-c3ccc(F)c4sc(N)nc34)c(F)c2n1` (stereo not shown) [Compound 105], the IC50 in test [1] and in test [2] was 10 to 30 µM each time.

Take `CN1C[C@H](F)C[C@H]1COc1nc(NC2CNC2)c2cc(Cl)c(-c3ccc(F)c4sc(N)nc34)c(F)c2n1` [Compound 106]: the IC50 in test [1] and in test [2] was 1 to 10 µM throughout.

Take `CN1CCC[C@H]1COc1nc(NCCN)c2cc(Cl)c(-c3ccc(F)c4nc(N)sc34)c(F)c2n1` [Compound 107]: the 50% inhibitory concentration (IC50) in test [1] and in test [2] was 10 to 30 µM each time.

Regarding `CN1CCC[C@H]1COc1nc(N2CCN(C(=O)CN)CC2)c2cc(Cl)c(-c3ccc(F)c4sc(N)nc34)c(F)c2n1` [Compound 108], the IC50 in test [1] and in test [2] was 10 to 30 µM in each case.

Consider `CN1CCC[C@H]1COc1nc(NCCN)c2cc(Cl)c(-c3ccc4nc(N)sc4c3)c(F)c2n1` [Compound 109], for which the IC50 in test [1] and in test [2] was 10 to 30 µM in each case.

For the molecule `CN1CCC[C@H]1COc1nc(N2CC(N)C2)c2cc(Cl)c(-c3ccc(F)c4sc(N)nc34)c(F)c2n1` [Compound 112], the IC50 in test [1] and in test [2] was 1 to 10 µM throughout.

`Nc1nc2c(F)ccc(-c3c(-c4ccoc4)cc4c(NC5CNC5)nc(OCC56CCCN5CCC6)nc4c3F)c2s1` [Compound 113]: the 50% inhibitory concentration (IC50) in test [1] fell in the range of 0.1 to 1 µM; in test [2] it was 1 to 10 µM.

Take `CN1CCC[C@H]1COc1nc(NC2CN(C(=O)CN)C2)c2cc(C(F)(F)F)c(-c3ccc(F)c4sc(N)nc34)c(F)c2n1` [Compound 114]: the IC50 in test [1] and in test [2] was 1 to 10 µM in each case.

`CN1CCC[C@H]1COc1nc(N2CCNCC2)c2cc(C(F)(F)F)c(-c3ccc(F)c4sc(N)nc34)c(F)c2n1` [Compound 115]: the concentration for half-maximal inhibition (IC50) in test [1] and in test [2] was 1 to 10 µM throughout.

`CN1CCC[C@H]1COc1nc(N2CCN(C(=O)CN)CC2)c2cc(C(F)(F)F)c(-c3ccc(F)c4sc(N)nc34)c(F)c2n1` [Compound 116]: the 50% inhibitory concentration (IC50) in test [1] and in test [2] was 1 to 10 µM each time.

Take `CN1C[C@H](F)C[C@H]1COc1nc(NC2CNC2)c2cc(C(F)(F)F)c(-c3ccc(F)c4sc(N)nc34)c(F)c2n1` [Compound 119]: the half-maximal inhibitory concentration (IC50) in test [1] and in test [2] was 1 to 10 µM each time.

`CO[C@@H]1C[C@@H](COc2nc(NC3CNC3)c3cc(C(F)(F)F)c(-c4ccc(F)c5sc(N)nc45)c(F)c3n2)N(C)C1` [Compound 122]: the IC50 in test [1] and in test [2] was 1 to 10 µM throughout.

As to `Nc1nc2c(-c3c(C(F)(F)F)cc4c(N5CCNCC5)nc(OCC56CCCN5CCC6)nc4c3F)ccc(F)c2s1` [Compound 123], the concentration for half-maximal inhibition (IC50) in test [1] and in test [2] was 1 to 10 µM in each case.

As to `COc1c(Cl)c(-c2ccc(F)c3sc(N)nc23)c(F)c2ncnc(N3CCNCC3)c12` [Compound 125, 4-(6-chloro-8-fluoro-5-methoxy-4-(piperazin-1-yl)quinazolin-7-yl)-7-fluorobenzo[d]thiazol-2-amine], the concentration for half-maximal inhibition (IC50) in test [1] and in test [2] was 10 to 30 µM throughout.

In the case of `CN1C[C@H](F)C[C@H]1COc1nc(N2CCNCC2)c2cc(Cl)c(-c3ccc(F)c4sc(N)nc34)c(F)c2n1` [Compound 128], the IC50 in test [1] and in test [2] was 10 to 30 µM in each case.

As for `N#CCc1cc2c(N3CCN(C(=O)CN)CC3)ncnc2c(F)c1-c1ccc(F)c2sc(N)nc12` [Compound 131], the IC50 in test [1] and in test [2] was 10 to 30 µM throughout.

Turning to `CN1C[C@H](OC(F)F)C[C@H]1COc1nc(NC2CNC2)c2cc(Cl)c(-c3ccc(F)c4sc(N)nc34)c(F)c2n1` [Compound 132], the IC50 in test [1] and in test [2] was 1 to 10 µM in each case.

For the molecule `CN1C[C@H](F)C[C@H]1COc1nc(NC2CNC2)c2cc(-c3ccoc3)c(-c3ccc(F)c4sc(N)nc34)c(F)c2n1` [Compound 135], the IC50 in test [1] and in test [2] was 1 to 10 µM in each case.

As for `CN1CC(F)(F)C[C@H]1COc1nc(NCCN)c2cc(Cl)c(-c3ccc(F)c4sc(N)nc34)c(F)c2n1` [Compound 136], the IC50 in test [1] and in test [2] was 10 to 30 µM each time.

As for `CN1C[C@H](F)C[C@H]1COc1nc(NC2CN(C(=O)CN)C2)c2cc(-c3ccoc3)c(-c3ccc(F)c4sc(N)nc34)c(F)c2n1` [Compound 137], the IC50 is 1 to 10 µM in test [1] and 10 to 30 µM in test [2].

Regarding `CN1C[C@H](F)C[C@H]1COc1nc(N2CCNCC2)c2cc(C(F)(F)F)c(-c3ccc(F)c4sc(N)nc34)c(F)c2n1` [Compound 140], the concentration for half-maximal inhibition (IC50) in test [1] was in the range of 1 to 10 µM; in test [2], 10 to 30 µM.

As for `CN1C[C@H](F)C[C@H]1COc1nc(N2CCNCC2)c2cc(-c3ccoc3)c(-c3ccc(F)c4sc(N)nc34)c(F)c2n1` [Compound 141], the 50% inhibitory concentration (IC50) in test [1] and in test [2] was 10 to 30 µM throughout.

`CN1CCC[C@H]1COc1nc(N2CCNCC2)c2cc(-c3ccoc3)c(-c3ccc(F)c4sc(N)nc34)c(F)c2n1` [Compound 143, 7-fluoro-4-(8-fluoro-6-(furan-3-yl)-2-(((S)-1-methylpyrrolidin-2-yl)methoxy)-4-(piperazin-1-yl)quinazolin-7-yl)benzo[d]thiazol-2-amine]: the 50% inhibitory concentration (IC50) in test [1] and in test [2] was 10 to 30 µM in each case.

As for `CN1CCC[C@H]1COc1nc(N2CCN(C(=O)CN)CC2)c2cc(-c3ccoc3)c(-c3ccc(F)c4sc(N)nc34)c(F)c2n1` [Compound 144, 2-amino-1-(4-(7-(2-amino-7-fluorobenzo[d]thiazol-4-yl)-8-fluoro-6-(furan-3-yl)-2-(((S)-1-methylpyrrolidin-2-yl)methoxy)quinazolin-4-yl)piperazin-1-yl)ethan-1-one], the IC50 in test [1] and in test [2] was 10 to 30 µM each time.

With `CN1CCC[C@H]1COc1nc(N2CCNCC2)c2cc(-c3ccccc3)c(-c3ccc(F)c4sc(N)nc34)c(F)c2n1` [Compound 145], the 50% inhibitory concentration (IC50) in test [1] and in test [2] was 10 to 30 µM in each case.

As for `CN1CCC[C@H]1COc1nc(NC2CN(C(=O)CN)C2)c2cc(-c3ccoc3)c(-c3ccc(F)c4sc(N)nc34)c(F)c2n1` [Compound 146], the IC50 lay within 1 to 10 µM in test [1] and 10 to 30 µM in test [2].

`CN(c1nc(OC[C@@H]2CCCN2C)nc2c(F)c(-c3ccc(F)c4sc(N)nc34)c(Cl)cc12)C1CN(C(=O)CN)C1` [Compound 147]: the 50% inhibitory concentration (IC50) in test [1] and in test [2] was 10 to 30 µM in each case.

Take `CN1CCC[C@H]1COc1nc(NCCN)c2cc(C(F)(F)F)c(-c3ccc(F)c4sc(N)nc34)c(F)c2n1` [Compound 149]: the IC50 in test [1] and in test [2] was 1 to 10 µM in each case.

Turning to `CN(c1nc(OC[C@@H]2C[C@@H](F)CN2C)nc2c(F)c(-c3ccc(F)c4sc(N)nc34)c(-c3ccoc3)cc12)C1CN(C(=O)CN)C1` [Compound 150], the half-maximal inhibitory concentration (IC50) in test [1] and in test [2] was 10 to 30 µM each time.

On to `CN(c1nc(OCC23CCCN2CCC3)nc2c(F)c(-c3ccc(F)c4sc(N)nc34)c(-c3ccoc3)cc12)C1CN(C(N)=O)C1` [Compound 151], for which the IC50 in test [1] lay within 1 to 10 µM; in test [2], 10 to 30 µM.

These data come from patent publication US20240246954A1, “COMPOSITIONS AND METHODS FOR INHIBITING KRAS” (TheRas, Inc., priority 2021, published 2024).
